# Assays:
# bacteremia = assay: Bacteremia in liver disease patients paired with fecal samples, logistic regression; assay type: in vivo, human
# Source text: (§1) FIGS. 13A-13E: Bifidobacteria expansion and associated metabolite production are associated with decreased incidence of bacteremia). (A) Flow diagram depicting number of samples and number of patients that were filtered out at each step of analysis for bacteremia. (B) Taxonomic relative abundance by shotgun metagenomics of stool samples paired to blood cultures is plotted in order of decreasing Bifidobacteria abundance from left to right. Underneath each stool sample is the clinical diagnosis associated with a given blood culture (bacteremia (red) or no bacteremia (green)). (C) Volcano plot of normalized metabolite concentrations. P-values were calculated using a two-tailed Wilcoxon rank sum test and are corrected for multiple comparisons using the Benjamini-Hochberg procedure. Values with log 2 fold-change >1 (corresponding to a 2-fold change with a p-value <0.05) were considered significant. (D and E) Quantitative levels for butyrate, propionate, lithocholic acid, and alloisolithocholic acid were compared from samples associated and not associated with SBP. Units for SCFA are mM, and units for BA derivatives are in μg/mL. Each point represents a single sample. Median and interquartile range are indicated by the horizontal line and box, respectively. […] Statistical comparisons between individual groups were analyzed using a two-tailed Wilcoxon rank sum test. […]
# SBP = assay: Spontaneous bacterial peritonitis (SBP) in liver disease patients paired with fecal samples, logistic regression; assay type: in vivo, human
# Source text: as §1, with “12A-12E:” for “13A-13E:”, “spontaneous bacterial peritonitis (SBP).” for “bacteremia).”, “SBP.” for “bacteremia.”, “ascites samples” for “blood cultures”, “an ascites sample (SBP” for “a given blood culture (bacteremia”, “not SBP” for “no bacteremia”
smiles,measurement,setting,value
"OC[C@H]1O[C@@H](O[C@@H]2[C@@H](CO)OC(O)(CO)[C@H]2O)[C@H](O)[C@@H](O)[C@H]1O (mixture of isomers) [Lactulose, lactulose]",Samples with lactulose exposure among bacteremia,bacteremia; N = 19,(32%)
same,Samples with lactulose exposure among no bacteremia,bacteremia; N = 227,(65%)
same,Samples with lactulose exposure among sbp,SBP; N = 21,(76%)
same,Samples with lactulose exposure among no sbp,SBP; N = 101,(79%)

# Source: patent US20250186470A1, “Compositions and Methods Using Lactulose for Treating Disease” (THE UNIVERSITY OF CHICAGO, priority 2023, published 2025)
